Experimental data taken from PubChem BioAssay (NCI).
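In this assay, cells in 96-well plates receive the compound at five concentrations for 48 hours. Endpoints are linearly interpolated between the surrounding concentrations. TGI marks complete inhibition of growth.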

Assays:
Experiment in all cases: inhibition of tumour cell growth, NCI panel, 48 h
ACHN renal = tested on: ACHN renal
CAKI-1 renal = tested on: CAKI-1 renal
CCRF-CEM leukemia = tested on: CCRF-CEM leukemia
DLD-1 colon = tested on: DLD-1 colon
DMS 114 small cell lung = tested on: DMS 114 small cell lung
DMS 273 small cell lung = tested on: DMS 273 small cell lung
HOP-18 NSCLC = tested on: HOP-18 NSCLC
KM20L2 colon = tested on: KM20L2 colon
LXFL 529 NSCLC = tested on: LXFL 529 NSCLC
M19-MEL melanoma = tested on: M19-MEL melanoma
MOLT-4 leukemia = tested on: MOLT-4 leukemia
NCI-H522 lung = tested on: NCI-H522 lung
OVCAR-3 ovarian = tested on: OVCAR-3 ovarian
SNB-75 CNS = tested on: SNB-75 CNS
SNB-78 CNS = tested on: SNB-78 CNS
XF 498 CNS = tested on: XF 498 CNS
OVCAR-4 ovarian = tested on: OVCAR-4 ovarian
RXF-631 renal = tested on: RXF-631 renal

Structure (SMILES) | TGI (ACHN renal) | TGI (CAKI-1 renal) | TGI (CCRF-CEM leukemia) | TGI (DLD-1 colon) | TGI (DMS 114 small cell lung) | TGI (DMS 273 small cell lung) | TGI (HOP-18 NSCLC) | TGI (KM20L2 colon) | TGI (LXFL 529 NSCLC) | TGI (M19-MEL melanoma) | TGI (MOLT-4 leukemia) | TGI (NCI-H522 lung) | TGI (OVCAR-3 ovarian) | TGI (SNB-75 CNS) | TGI (SNB-78 CNS) | TGI (XF 498 CNS) | TGI (OVCAR-4 ovarian) | TGI (RXF-631 renal)
O=C(O)c1ccc(C2COc3ccc(Cl)cc3C2)cc1 (stereo not drawn) | > 100 µM | > 100 µM | > 100 µM | > 100 µM | > 100 µM | > 100 µM | > 100 µM | > 100 µM | > 100 µM | > 100 µM | > 100 µM | > 100 µM | > 100 µM | > 100 µM | > 100 µM | > 100 µM |  | 
O=C1CCCN1C(=O)CS(=O)(=O)c1ccccc1 | > 100 µM | > 100 µM | > 100 µM |  |  |  |  |  |  |  | > 100 µM | > 100 µM | > 100 µM | > 100 µM |  |  | > 100 µM | 
CCOC(=O)/C(C=Nc1c(C)n(C)n(-c2ccccc2)c1=O)=C(/C)O | > 100 µM | > 100 µM | > 100 µM |  |  |  |  |  |  |  | > 100 µM | > 100 µM | > 100 µM | > 100 µM |  |  | > 100 µM | 
COc1ccc(C(=O)/C=C/c2ccc(O)c(O)c2)c(OC)c1 | > 70.3 µM | 34.5 µM | > 32 µM |  |  |  |  |  |  |  | > 38.9 µM | 0.74 µM | 2.66 µM | 29.5 µM |  |  | > 100 µM | 
CN(N=O)C(=O)ON1C(=O)CCC1=O | > 100 µM | > 100 µM | > 100 µM | > 100 µM | > 100 µM | > 100 µM | > 100 µM | > 100 µM | > 100 µM | > 100 µM | > 100 µM | > 100 µM | > 100 µM | > 100 µM | > 100 µM |  | > 100 µM | 
Cc1ccc(/C=C/C(=O)C(C)(C)CN2CCCCC2)cc1 | 23.7 µM | 14.2 µM | 10.4 µM |  |  | 11.7 µM |  | 10.7 µM | 19.4 µM | 31.1 µM | 7.55 µM | 13.7 µM | 8.65 µM | 19.5 µM | 29.7 µM | 25.3 µM | 22.9 µM | 32.1 µM
CC(=O)C1C(=O)C(=O)N(c2cccc([N+](=O)[O-])c2)C1=O (stereo not drawn) | > 100 µM | > 100 µM | > 100 µM |  |  |  |  |  |  |  | > 100 µM | > 100 µM | > 100 µM | > 100 µM |  |  | > 100 µM | 
O=C(CSc1nnc(Cc2ccccc2)o1)Nc1ccccc1 | > 100 µM |  | > 100 µM | > 100 µM | > 100 µM | > 100 µM | > 100 µM | > 100 µM | > 100 µM | > 100 µM | > 100 µM | > 100 µM | > 100 µM | > 100 µM | > 100 µM |  | > 100 µM | 
CCN(CC)CC1CCCCN1CC(=O)N1c2ccccc2C(=O)Nc2cccnc21 (stereo not drawn) | > 100 µM | > 100 µM | 38.5 µM |  |  |  |  |  |  |  | 55.5 µM | > 100 µM | > 100 µM | > 100 µM |  |  | > 100 µM | 
O=[N+]([O-])c1nccn1CCCNc1ccnc2cc(Cl)ccc12 | > 17.8 µM | > 7.83 µM | > 100 µM |  |  |  |  |  |  |  | > 100 µM | 6.71 µM | > 100 µM | > 100 µM |  |  | > 100 µM | 
C[n+]1ccc(/C2=C3\C=CC(=N3)/C(c3cc[n+](C)cc3)=c3/cc/c([nH]3)=C(\c3cc[n+](C)cc3)C3=N/C(=C(/c4cc[n+](C)cc4)C4C=CC2N4)C=C3)cc1 | > 100 µM | > 100 µM | > 100 µM |  |  |  |  |  |  |  | > 100 µM | > 100 µM | > 100 µM | > 100 µM |  |  | > 100 µM | 
Oc1ccc(-c2cc(-c3cc(-c4ccc(O)cc4)no3)on2)cc1 | > 100 µM | > 100 µM | > 100 µM |  |  |  |  |  |  |  | 9.52 µM | > 100 µM | > 100 µM | > 100 µM |  |  | > 100 µM | 
C=CCC1(OCc2ccccc2)C(=O)C(=O)OC1C1COC(C)(C)O1 (stereo not drawn) | > 100 µM | > 100 µM | > 100 µM |  |  |  |  |  |  |  | > 100 µM | > 100 µM | > 100 µM | > 100 µM |  |  | > 100 µM | 
O=c1nc(NC2CCCCO2)ccn1CCO (stereo not drawn) | > 100 µM | > 100 µM | > 100 µM | > 100 µM | > 100 µM | > 100 µM | > 100 µM | > 100 µM | > 100 µM | > 100 µM |  | > 100 µM | > 100 µM | > 100 µM | > 100 µM | > 100 µM | > 100 µM | > 100 µM
CC(C)(C)c1cc2c(OC/C=C/c3ccccc3)c(c1)Cc1cc(C(C#N)(OC/C=C/c3ccccc3)OC/C=C/c3ccccc3)cc(c1OC/C=C\c1ccccc1)Cc1cc(C(C)(C)C)cc(c1OC/C=C/c1ccccc1)Cc1cc(C(C#N)(OC/C=C\c3ccccc3)OC/C=C/c3ccccc3)cc(c1OC/C=C\c1ccccc1)C2 (stereo not drawn) | > 100 µM | > 100 µM | > 100 µM |  |  |  |  |  |  |  | > 100 µM | > 100 µM | > 100 µM | > 100 µM |  |  | > 100 µM | 
CCCP1(=O)C=C(C)C(=C(Cl)Cl)C(C)=C1 (stereo not drawn) | > 100 µM |  | > 100 µM | > 100 µM | > 100 µM |  | > 100 µM | 47.1 µM | > 100 µM | > 100 µM | 98.6 µM | 36.5 µM | > 100 µM |  | > 100 µM |  | > 100 µM | 
CC(=O)CN(Cc1cc(C)c2c(c1)c1ccccc1n2Cc1ccccc1)S(=O)(=O)c1ccc(C)cc1 |  | > 100 µM | > 100 µM | > 100 µM | > 100 µM | > 100 µM | > 100 µM |  | > 100 µM | > 100 µM | > 100 µM | > 100 µM | > 100 µM | > 100 µM | > 100 µM | > 100 µM | > 100 µM | > 100 µM
